ChEMBL document CHEMBL1201862, “PubChem BioAssay data set” (2004)
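Interpolation was linear, between the two tested concentrations surrounding the appropriate level; five concentrations were tested over 48 hours in 96-well plates. Here, GI50 denotes the concentration required for 50% inhibition of growth.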 Calls of active or inactive are those of the source. Cut-off read from the data, not from the text of the source: active = GI50 up to about 1.1 µM and inactive = higher.

What was measured:
Assay in all cases: NCI anticancer screen, dose series, 48 h
A549 = system: A549
EKVX = system: EKVX
HCT-116 = system: HCT-116
HOP-62 = system: HOP-62
IGROV-1 = system: IGROV-1
KM12 = system: KM12
NCI-H460 = system: NCI-H460
NCI/ADR-RES = system: NCI/ADR-RES
OVCAR-5 = system: OVCAR-5
OVCAR-8 = system: OVCAR-8
RXF 393 = system: RXF 393
SF-268 = system: SF-268
SK-MEL-5 = system: SK-MEL-5
SN12C = system: SN12C
SNB-19 = system: SNB-19
SW-620 = system: SW-620
TK-10 = system: TK-10
U-251 = system: U-251
UACC-257 = system: UACC-257
Malme-3M = system: Malme-3M

Row | Structure (SMILES) | GI50 (A549) | GI50 (EKVX) | GI50 (HCT-116) | GI50 (HOP-62) | GI50 (IGROV-1) | GI50 (KM12) | GI50 (NCI-H460) | GI50 (NCI/ADR-RES) | GI50 (OVCAR-5) | GI50 (OVCAR-8) | GI50 (RXF 393) | GI50 (SF-268) | GI50 (SK-MEL-5) | GI50 (SN12C) | GI50 (SNB-19) | GI50 (SW-620) | GI50 (TK-10) | GI50 (U-251) | GI50 (UACC-257) | GI50 (Malme-3M)
1 | CN(C)/N=N/c1ccc(NC=O)cc1 | > 100 µM (inactive) | > 100 µM (inactive) | > 100 µM (inactive) | > 100 µM (inactive) | > 100 µM (inactive) | > 100 µM (inactive) | > 100 µM (inactive) | > 100 µM (inactive) | 90.4 µM (inactive) | > 100 µM (inactive) | > 100 µM (inactive) | 0.456 µM (active) | > 100 µM (inactive) | > 100 µM (inactive) | > 100 µM (inactive) | > 100 µM (inactive) | > 100 µM (inactive) | > 100 µM (inactive) | > 100 µM (inactive) | –
2 | O=c1c2ccccc2ncn1COCc1ccccc1 | > 100 µM (inactive) | > 100 µM (inactive) | > 100 µM (inactive) | – | > 100 µM (inactive) | > 100 µM (inactive) | – | > 100 µM (inactive) | > 100 µM (inactive) | > 100 µM (inactive) | > 100 µM (inactive) | – | > 100 µM (inactive) | – | > 100 µM (inactive) | > 100 µM (inactive) | > 100 µM (inactive) | > 100 µM (inactive) | > 100 µM (inactive) | –
3 | CCOC(=O)CNC(=O)C(CSCc1ccc(Br)cc1)NC(=O)CCC(N)C(=O)OCC (stereo not drawn) | > 50 µM (inactive) | > 50 µM (inactive) | > 50 µM (inactive) | > 50 µM (inactive) | > 50 µM (inactive) | 40.6 µM (inactive) | > 50 µM (inactive) | > 50 µM (inactive) | > 50 µM (inactive) | > 50 µM (inactive) | > 50 µM (inactive) | > 50 µM (inactive) | > 50 µM (inactive) | > 50 µM (inactive) | > 50 µM (inactive) | > 50 µM (inactive) | – | > 50 µM (inactive) | > 50 µM (inactive) | –
4 | O=C1c2ccccc2C(O)(C(=O)O)C1(O)CC=C(Cl)Cl (stereo not drawn) | > 125 µM (inactive) | > 125 µM (inactive) | > 125 µM (inactive) | > 125 µM (inactive) | > 125 µM (inactive) | > 125 µM (inactive) | > 125 µM (inactive) | > 125 µM (inactive) | > 125 µM (inactive) | > 125 µM (inactive) | > 125 µM (inactive) | > 125 µM (inactive) | > 125 µM (inactive) | > 125 µM (inactive) | > 78.9 µM (inactive) | > 125 µM (inactive) | – | > 28.2 µM (inactive) | > 125 µM (inactive) | > 125 µM (inactive)
5 | COc1ccc(C2=C(N)c3c(Cl)cccc3C2=O)cc1 | > 100 µM (inactive) | > 100 µM (inactive) | 83.9 µM (inactive) | 70 µM (inactive) | > 100 µM (inactive) | > 100 µM (inactive) | > 100 µM (inactive) | 50 µM (inactive) | > 100 µM (inactive) | 53.1 µM (inactive) | – | > 100 µM (inactive) | > 100 µM (inactive) | > 100 µM (inactive) | 22 µM (inactive) | > 100 µM (inactive) | – | 49.3 µM (inactive) | > 100 µM (inactive) | > 100 µM (inactive)
6 | C=CC1=C(C)c2cc3[nH]c(c4c5nc(cc6[nH]c(cc1n2)c(C)c6CC)C=C5C(=O)C4C(=O)OC)C(CCC(=O)OC/C=C(\C)CCCC(C)CCCC(C)CCCC(C)C)C3C.C=CC1=C(C)c2cc3[nH]c(c4c5nc(cc6[nH]c(cc1n2)c(C=O)c6CC)C=C5C(=O)C4C(=O)OC)C(CCC(=O)OC/C=C(\C)CCCC(C)CCCC(C)CCCC(C)C)C3C (stereo not drawn) | > 100 µM (inactive) | 50.6 µM (inactive) | > 100 µM (inactive) | > 100 µM (inactive) | 38.9 µM (inactive) | > 100 µM (inactive) | > 100 µM (inactive) | > 100 µM (inactive) | > 100 µM (inactive) | 43 µM (inactive) | – | > 100 µM (inactive) | > 100 µM (inactive) | > 100 µM (inactive) | > 100 µM (inactive) | > 100 µM (inactive) | > 100 µM (inactive) | > 100 µM (inactive) | > 100 µM (inactive) | –
7 | Cc1c2ccncc2c(C)c2c1[nH]c1ccccc12 [ELLIPTECINE] | 0.504 µM (active) | 0.933 µM (active) | 0.272 µM (active) | 0.818 µM (active) | 0.729 µM (active) | 0.473 µM (active) | 0.15 µM (active) | 0.659 µM (active) | 1.46 µM (inactive) | 0.406 µM (active) | 0.288 µM (active) | 0.698 µM (active) | 0.944 µM (active) | 1.06 µM (active) | 0.826 µM (active) | 0.36 µM (active) | – | 0.771 µM (active) | 1.42 µM (inactive) | 2.01 µM (inactive)
8 | CC1CC(C)(O)C2C3(C)CCCC2(COC3=O)C12CCC1(CCOC1=O)O2 (stereo not drawn) | > 250 µM (inactive) | > 250 µM (inactive) | > 250 µM (inactive) | > 250 µM (inactive) | > 250 µM (inactive) | > 250 µM (inactive) | > 250 µM (inactive) | > 250 µM (inactive) | > 250 µM (inactive) | > 250 µM (inactive) | > 250 µM (inactive) | > 250 µM (inactive) | > 250 µM (inactive) | > 250 µM (inactive) | > 250 µM (inactive) | > 250 µM (inactive) | – | > 250 µM (inactive) | > 250 µM (inactive) | > 250 µM (inactive)
9 | C/C=C(\C)C(=O)OC1C2C(C)=CC(=O)C(O)C2(C)C2C3(O)OCC24C1OC(=O)C(OC(C)=O)C4C(C)C3O (stereo not drawn) | 0.0873 µM (active) | 0.046 µM (active) | 0.0375 µM (active) | 0.0375 µM (active) | 0.0375 µM (active) | 0.0375 µM (active) | 0.0375 µM (active) | 1.05 µM (active) | 0.111 µM (active) | 0.0396 µM (active) | 0.0375 µM (active) | 0.0444 µM (active) | – | 0.0741 µM (active) | – | 0.0594 µM (active) | – | 0.0375 µM (active) | 0.0375 µM (active) | –
10 | CC(=O)[C@H]1CC[C@@H]2[C@]1(C)CC=C1[C@]23C=C[C@]2(C[C@@H](O)CC[C@]12C)C(C(=O)O)C3C(=O)O (stereo partly drawn) | > 100 µM (inactive) | > 100 µM (inactive) | > 100 µM (inactive) | > 100 µM (inactive) | > 100 µM (inactive) | > 100 µM (inactive) | > 100 µM (inactive) | > 100 µM (inactive) | > 100 µM (inactive) | > 100 µM (inactive) | – | > 100 µM (inactive) | > 100 µM (inactive) | > 100 µM (inactive) | > 100 µM (inactive) | > 100 µM (inactive) | > 100 µM (inactive) | > 100 µM (inactive) | > 100 µM (inactive) | > 100 µM (inactive)
11 | COc1cc(C2C3=C(N=C4SC(C(C)=O)=C(C)N42)c2ccccc2CC3)cc(OC)c1OC (stereo not drawn) | > 100 µM (inactive) | 85.5 µM (inactive) | > 100 µM (inactive) | 97.9 µM (inactive) | 52 µM (inactive) | > 100 µM (inactive) | – | 78.9 µM (inactive) | > 100 µM (inactive) | > 100 µM (inactive) | 46.8 µM (inactive) | > 100 µM (inactive) | 41.8 µM (inactive) | > 100 µM (inactive) | > 100 µM (inactive) | > 100 µM (inactive) | – | > 100 µM (inactive) | > 100 µM (inactive) | –
12 | CN1C(=O)[C@@H]2[C@@H]3c4ccccc4N(S(=O)(=O)C(F)(F)F)[C@@H]3c3[nH]c4ccccc4c3[C@@H]2C1=O | 11.2 µM (inactive) | 5.74 µM (inactive) | 17.2 µM (inactive) | > 100 µM (inactive) | 0.175 µM (active) | – | 21.5 µM (inactive) | 26.3 µM (inactive) | > 100 µM (inactive) | 83 µM (inactive) | 10.3 µM (inactive) | > 100 µM (inactive) | 36.4 µM (inactive) | > 100 µM (inactive) | > 100 µM (inactive) | > 100 µM (inactive) | 47.8 µM (inactive) | 31.3 µM (inactive) | 62.5 µM (inactive) | –
13 | O=c1cc(N2CCCC2)[nH]c(=O)n1-c1ccccc1 | > 100 µM (inactive) | > 100 µM (inactive) | > 100 µM (inactive) | > 100 µM (inactive) | > 100 µM (inactive) | > 100 µM (inactive) | > 100 µM (inactive) | > 100 µM (inactive) | > 100 µM (inactive) | > 100 µM (inactive) | – | > 10 µM (inactive) | > 100 µM (inactive) | > 100 µM (inactive) | > 100 µM (inactive) | > 100 µM (inactive) | > 100 µM (inactive) | > 100 µM (inactive) | > 100 µM (inactive) | > 100 µM (inactive)
14 | CCc1ccc(COC(=O)C2=C(C)NC(C)=C(C(=O)OCc3ccc(CC)cn3)C2C2=COCCO2)nc1 | 25.2 µM (inactive) | 12.7 µM (inactive) | 16.3 µM (inactive) | 17.5 µM (inactive) | 39.8 µM (inactive) | 30.7 µM (inactive) | 31.5 µM (inactive) | 22 µM (inactive) | 28.1 µM (inactive) | 32.9 µM (inactive) | 15.4 µM (inactive) | 27.4 µM (inactive) | 13.3 µM (inactive) | > 10 µM (inactive) | 18.8 µM (inactive) | 27.8 µM (inactive) | 33.7 µM (inactive) | 17.5 µM (inactive) | 20.5 µM (inactive) | –
